Results as given in publication PMC7588429, “Structure/activity virtual screening and in vitro testing of small molecule inhibitors of 8-hydroxy-5-deazaflavin:NADPH oxidoreductase from gut methanogenic bacteria” (Scientific Reports, 2020).
Like-named read-outs stand apart in the source and are kept apart here.

Legend:
[1] = biological target: T1, FNO from M. smithii (Methanobrevibacter smithii, UniProt A5UJ76); assay: SPR optical biosensor binding to immobilized FNO; conditions: for kon / koff / kass / kdiss: PBS pH 7.4; for kon: read-out: kass; for koff: read-out: kdiss
Procedure: FNO was covalently immobilized on a carboxylate surface according to the protocol described in the Materials and Methods section. The change in the signal related to immobilization of the enzyme (ΔR ≅ 1,000 arcsec) corresponded to the achievement of a partial Langmuir monolayer for a protein of 120 kDa (2 ng/mm^2). The affinities of FNO for the ten compounds of interest were derived from the fit of raw data (representative sensorgrams are shown in Fig. 8; full panel is provided in Supplemental Information) to a mono-exponential model.
FNO from M. smithii (isolated as described in the Supplementary Information) was covalently coupled to the carboxylate surface of the sensor via EDC/NHS chemistry. Upon successful immobilization of FNO, unreacted carboxyl groups were blocked with ethanolamine 1 M pH 8.5, and the surface was eventually equilibrated with PBS. Independent additions of each molecule at different concentrations (β-D-glucose pentacetate 1.25–62.5 µM; mangiferin 3.125–37.5 µM; baicalin 1.25–25 µM; frangulin A 30–480 nM; ononin 29–465 nM; 5z-caffeoylquinic acid […]; ZINC35442308 0.30–4.92 µM; ZINC248099510 0.31–4.93 µM; ZINC2120951 0.32–5.1 µM; ZINC9271779 0.32–5.2 µM) to surface-blocked FNO were performed, each time monitoring the association kinetics until equilibrium. […] The affinities between surface-blocked FNO and soluble ligands were derived from the fit of raw data to single exponential model.

[2] = biological target: T1, FNO from M. smithii; assay: Fluorometric FNO activity inhibition assay (F420 reduction with NADPH); assay type: biochemical
Procedure: According to the fluorometric assay of FNO activity, we observed an evident decrease in F420 reduction rates upon 15 min preincubation of FNO with increasing levels of the ten representative compounds of interest (the superimposition of representative residual activity plots obtained with β-D-glucose pentaacetate, mangiferin and baicalin are shown in Fig. 11; the full panel is provided in Supplemental Information).
FNO catalyses the reduction of NADP^+ with F420H2 via hydride transfer, and the reverse reaction, i.e. the reduction of F420 with NADPH. Here, the spectrofluorometric assay of FNO activity was based on monitoring the decrease in F420 emission at 470 nm upon excitation at 420 nm. Briefly, FNO (4 nM) was incubated with 0.5 mM F420 (purified from T. roseum as described in the Supplementary Information) and 0.5 mM NADPH (this concentration was selected on the basis of Km values in other methanogenic organisms[42]) at 37 °C in the presence or in the absence of increasing concentrations of the compounds of interest in 50 mM sodium citrate, pH 6.0. […] The residual activity ( a ) was expressed as the ratio of the initial velocities of the product formation in the presence ( V0,i ) and in the absence ( V0 ) of a given inhibitor concentration [Ii]. Raw data were processed as described elsewhere.

[3] = system: FNO; assay: pH dependence of mangiferin-FNO binding (biosensor, linkage analysis); conditions: 7.35 ± 0.33 in free enzyme
Procedure: In order to evaluate the effects of pH on the enzyme-ligand interaction, the binding of mangiferin (6.25–62.5 µM) to FNO was studied at different pH values in the range 6.0–8.0.
To evaluate the effects of pH on the enzyme-ligand interaction, the binding studies between mangiferin and FNO were replicated in a pH range between 6.4 and 8. The observed dependence of experimental KD from pH was analyzed according to a classic linkage relationship, protons being considered as heterotropic ligands for FNO[40]. This model involves a macromolecule (FNO) having a binding site for a ligand (mangiferin), and heterotropic binding sites able to accommodate a second ligand (H^+). These binding sites for protons present on the macromolecule can be grouped into two main sets: one with n binding sites with an ionization constant λ1, and one with m binding sites, each having an ionization constant equal to λ2. Therefore, the macromolecule can be described in three main ionization conditions: at low and at high pH values the fully protonated and the completely deprotonated forms prevail, respectively, whereas the intermediate form prevails at pH values equal to:1 pH=-logλ1-logλ2/2
Upon binding, the proton binding sites have their ionization constants shifted to λ3 and λ4, respectively. […]

[4] = biological target: T1, FNO from M. smithii; assay: Molecular docking (AutoDock Vina) onto the homology model of FNO; conditions: predicted
Text: The 8,012 compounds selected from the Zbc database subset on molecular weight and clogP criteria were individually docked against the homology model of FNO from M. smithii using a Perl/Python pipeline on AutoDock Vina. The residues constituting the catalytic site of FNO were retrieved from the available literature[19] and explicitly defined as the grid centre for all ligands. The quantitative results of docking in terms of ΔGpred of each highest-score pose were collected into a single array (ΔGpred values ranged between − 4.9 and − 10.5 kcal/mol), which was then merged with the other structural descriptors (as PSA, H-donors and acceptors, cLogP, MW, Drug-likeness, Total surface area) available for each compound as summarized in Supplementary Information.
In the absence of a crystallographic structure for FNO from M. smithii, its three-dimensional structure was obtained by homology modelling, according to a previously reported procedure. […]
8,012 molecules selected from the Zbc subset of ZINC database[36] on molecular weight (350–450 amu) and hydrophobicity (cLogP < 3.85) criteria were iteratively docked to the homology model of FNO from M. smithii using AutoDock Vina[37]. […] Structural properties of each molecule and calculated binding affinities to FNO were globally analysed with DataWarrior[38].

[5] = system: FNO; assay: Competitive binding test with NADP+ on biosensor; parameters: species or system Methanobrevibacter smithii
Procedure: A competitive binding test between NADP^+ and three out of the ten compounds (with high, moderate and low affinity for FNO, respectively) was performed to identify the binding site on FNO. The protocol involved the addition of a given concentration of baicalin, mangiferin and β-D-glucose pentaacetate to both free and NADP^+-saturated FNO.

[6] = experimental equilibrium constant, read-out: KD,E
[7] = 0.5 mM NADPH, 15 min preincubation, pH 6.0, 37 °C, read-out: Ki
[8] = 0.5 mM NADPH, 15 min preincubation, pH 6.0, 37 °C

T1 sequence (A5UJ76 entry or part of it): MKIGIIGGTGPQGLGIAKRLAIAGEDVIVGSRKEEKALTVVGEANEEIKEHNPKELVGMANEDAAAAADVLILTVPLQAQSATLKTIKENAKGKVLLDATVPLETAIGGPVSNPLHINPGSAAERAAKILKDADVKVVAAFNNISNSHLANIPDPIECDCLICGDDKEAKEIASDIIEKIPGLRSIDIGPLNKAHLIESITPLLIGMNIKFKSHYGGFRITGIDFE

kon [1] [M⁻¹ s⁻¹]	koff [1] [s⁻¹]	Kd [1, 6] [nM]	Ki [2, 7] [nM]	kass [1]	kdiss [1] [s⁻¹]	Ki [2, 8] [nM]	SMILES	biosensor response on NADP+-saturated FNO with respect to free enzyme [5]	further results
35200	0.0045 ± 0.0014	130 ± 50	49 ± 14	–	–	–	Cc1cc(O)c2c(c1)C(=O)c1cc(O[C@@H]3O[C@@H](C)[C@H](O)[C@@H](O)[C@H]3O)cc(O)c1C2=O [Frangulin A]	–	increase of inhibitory potency from β-D-glucose pentaacetate ([2]; 0.5 mM NADPH): approximately 100 fold
–	–	6800 ± 1700	–	1,147 ± 267 M^−1 s^−1	0.0078 ± 0.0008	1070 ± 340	Nc1ncnc2c1nc(NN=Cc1ccccc1)n2C1OC(CO)C(O)C1O (stereo not drawn) [ZINC9271779]	–	–
–	–	1650 ± 410	–	2,423 ± 116 M^−1 s^−1	0.004 ± 0.001	970 ± 670	COc1cc(OC)c2c(C)c(CC(=O)NCC(=O)NCC(=O)O)c(=O)oc2c1 [ZINC2120951]	–	–
–	–	230 ± 160	–	20,406 ± 2,270 M^−1 s^−1	0.005 ± 0.003	210 ± 140	O=C(C=Cc1ccc(O)c(O)c1)OC1CC(O)(C(=O)O)CC(O)C1O (stereo not drawn) [5z-caffeoylquinic acid]	–	–
29700	0.0072 ± 0.0033	240 ± 110	205 ± 69	–	–	–	COc1ccc(-c2coc3cc(O[C@@H]4O[C@H](CO)[C@@H](O)[C@H](O)[C@H]4O)ccc3c2=O)cc1 [Ononin]	–	–
2720	0.013 ± 0.005	4850 ± 1850	3960 ± 200	–	–	–	CC(=O)OC[C@H]1O[C@@H](OC(C)=O)[C@H](OC(C)=O)[C@@H](OC(C)=O)[C@@H]1OC(C)=O [β-D-glucose pentaacetate]	significantly lower	–

SMILES	kon [1] [M⁻¹ s⁻¹]	koff [1] [s⁻¹]	Kd [1, 6] [nM]	Ki [2, 7] [nM]	kass [1]	kdiss [1] [s⁻¹]	Ki [2, 8] [nM]	biosensor response on NADP+-saturated FNO with respect to free enzyme [5]	further results
O=c1c2cc(O)c(O)cc2oc2cc(O)c([C@@H]3O[C@H](CO)[C@@H](O)[C@H](O)[C@H]3O)c(O)c12 [Mangiferin]	4820	0.002 ± 0.00097	400 ± 200	650 ± 250	–	–	–	significantly lower	pKa of histidine residue in FNO-mangiferin complex ([3]; pH 6.4 to 7.4): 5.26 ± 2.61; pKa of histidine residue in FNO-mangiferin complex ([3]; pH 7.4 to 8.0): 8.21 ± 0.12; affinity for FNO with respect to ZINC05409528 [4]: nearly sevenfold lower affinity
O=C(O)[C@H]1O[C@@H](Oc2cc3oc(-c4ccccc4)cc(=O)c3c(O)c2O)[C@H](O)[C@@H](O)[C@@H]1O [Baicalin]	3870	0.00025 ± 0.0001	–	–	–	–	–	significantly lower	Kd [1]: 65 ± 28 nM; Ki [2]: 45 ± 3 nM
